Experimental data taken from ChEMBL document CHEMBL1122312, “Synthesis and 5-lipoxygenase inhibitory activities of eicosanoid compounds” (J Med Chem, 1983).

System: Arachidonate 5-lipoxygenase (Cavia porcellus)
Assay: Inhibitory activity against 5-lipoxygenase at a dose of 0.1 mM

Row | SMILES | inhibition [%]
1 | CCCCC/C=C\C\C=C/C=C/C=C/C1CC1CCCCC(=O)O (stereo not given) | 86
2 | CCCCC/C=C\C\C=C/C=C/C=C/C1CC1CCCC(=O)O (stereo not given) | 98
3 | CCCCCCCCCCCCCCC1CC1CCCC(=O)O (stereo in doubt; 25) | 1
4 | CCCCCCCCCCCCCCC1CC1CCCC(=O)O (stereo in doubt; 23) | 49
5 | CCCCC/C=C\C\C=C/C=C/C=C/C1SC1CCCC(=O)OC (stereo not given) | 60
6 | CCCCC/C=C\C/C=C\C/C=C\CC1CC1CCCC(=O)O (stereo not given) | 5
7 | CCCCC/C=C\C/C=C\C/C=C\C=C\C(=O)CCCC(=O)OC | 93
8 | CCCCC/C=C\C/C=C\C/C=C\C1(/C=C\CCCC(=O)O)CC1 | 34
9 | CCCCC/C=C\C/C=C\C/C=C\C=C\C(CO)CCCC(=O)O (stereo not given) | 47
10 | CCCCC/C=C\C\C=C/C=C/C=C/[C@@H]1O[C@H]1CCCC(=O)O | 78
